Entries after “also recorded” stand apart in the source; their conditions may differ. Like-named read-outs stand apart in the source and are kept apart here. Some results are limits rather than exact numbers.

One assay deals with IEC-6 cells. In words: Camptothecin-induced DNA fragmentation (apoptosis) in IEC-6 cells, ELISA. Type of assay: cell-based. Particulars: Camptothecin 20 μM, LPA and FAP12 at 10 μM. How it is done:
The experimental procedure utilized was substantially the same as that reported in Deng et al. (2002) and Deng et al., (2003).
Basically, IEC-6 cells were grown in DMEM medium supplemented with 5% fetal bovine serum, insulin (10 μg/ml), gentamycin sulfate (50 μg/ml), and incubated at 37° C. in a humidified 90% air–10% CO2 atmosphere. Medium was changed every other day. Sub-confluent cells were washed twice and replaced by DMEM without serum the night before experiments.
Damage and IEC-6 cell apoptosis was induced via either γ-irradiation or chemotherapy. 20 Gy single dose of [^137Cs] source γ-irradiation was used in all experiments. […] In some experiments, LPA was added at different times before or after irradiation. Treatment with 20 μM camptothecin of IEC-6 cells induces DNA fragmentation as measured by the ELISA assay at 16 h after treatment. DNA fragmentation was quantified using the Cell Death Detection ELISA kit from Boehringer (Indianapolis, Ind.) according to the instructions of the manufacturer. Samples were run in triplicate. A duplicate of the sample was used to quantify protein concentration using the BCA kit from Pierce (Rockford, Ill.). DNA fragmentation was expressed as absorbance units per μg protein per minute.

Assay [1] addresses T1, LPA1 (Homo sapiens, UniProt Q92633).
T1 construct: expressed in transfected cells
To be noted: RH7777 cells expressing LPA1; previously reported in Virag et al. (2003); cited from earlier work.

For assay [2], the target named is T2, LPA2 (Homo sapiens, UniProt Q9HBW0).
T2 construct: expressed in transfected cells
T2 sequence (Q9HBW0 whole entry): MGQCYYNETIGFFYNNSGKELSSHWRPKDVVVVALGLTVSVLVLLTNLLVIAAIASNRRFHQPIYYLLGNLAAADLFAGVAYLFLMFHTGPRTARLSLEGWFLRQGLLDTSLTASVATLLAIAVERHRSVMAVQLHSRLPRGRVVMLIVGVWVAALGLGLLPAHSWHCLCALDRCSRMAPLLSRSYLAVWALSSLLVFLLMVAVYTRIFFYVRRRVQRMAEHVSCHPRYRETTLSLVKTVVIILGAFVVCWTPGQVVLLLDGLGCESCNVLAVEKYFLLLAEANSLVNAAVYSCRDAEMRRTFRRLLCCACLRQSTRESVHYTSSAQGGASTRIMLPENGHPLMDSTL
Particulars: previously reported in Virag et al. (2003), cited from earlier work.

The target of assay [3] is T3, LPA3 (Homo sapiens, UniProt Q9UBY5).
T3 construct: expressed in transfected cells
T3 sequence (Q9UBY5 1-353): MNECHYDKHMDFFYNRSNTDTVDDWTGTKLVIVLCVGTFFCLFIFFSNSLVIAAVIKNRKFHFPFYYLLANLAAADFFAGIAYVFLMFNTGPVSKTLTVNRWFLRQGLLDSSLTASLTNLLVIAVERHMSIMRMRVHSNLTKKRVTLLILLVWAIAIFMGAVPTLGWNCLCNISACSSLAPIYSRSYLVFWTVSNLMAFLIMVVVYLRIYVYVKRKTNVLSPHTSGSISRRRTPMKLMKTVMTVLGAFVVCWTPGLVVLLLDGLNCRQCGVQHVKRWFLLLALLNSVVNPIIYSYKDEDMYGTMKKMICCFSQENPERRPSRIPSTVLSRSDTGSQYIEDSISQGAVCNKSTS
Particulars: RH7777 cells expressing LPA3; previously reported in Virag et al. (2003); cited from earlier work.

For assay [4], the target named is T1, LPA1. In words: Ca2+ transients (agonism / inhibition of LPA response) in RH7777 cells stably expressing LPA1. The format is cell-based. Particulars: for effect at LPA1 in words: Ca2+ transients. The protocol:
(§1) The culture medium (DMEM containing 10% FBS) was then replaced with modified Krebs solution (120 mM NaCl, 5 mM KCl, 0.62 mM MgSO4, 1.8 mM CaCl2, 10 mM HEPES, 6 mM glucose, pH 7.4) and the cells were serum starved for 6–8 hours (12 h for PC-3 cells). Cells were loaded with Fura-2 AM for 35 minutes in modified Krebs medium. The Fura-2 was removed before loading the plate in the FlexStation instrument by replacing the medium once again with 100 μl modified Krebs medium/well. Plates were incubated for 4 minutes in the instrument to allow for warming to 37° C. Changes in intracellular Ca^2+ concentration were monitored by measuring the ratio of emitted light intensity at 520 nm in response to excitation by 340 nm and 380 nm wavelength lights, respectively. Each well was monitored for 80–120 seconds. […] Time courses were recorded using the SoftMax Pro software (Molecular Devices, Sunnyvale, Calif.). Ca^2+ transients were quantified automatically by calculating the difference between maximum and baseline ratio values for each well.
(§2) Each FAP analog was tested for the ability to induce Ca^2+ transients in RH7777 cells transfected with LPA1-3 receptors (agonism), as well as the ability to inhibit LPAinduced Ca^2+ transients in the same cells (antagonism) (Table 3).

In assay [5] the target is T2, LPA2. In words: Ca2+ transients (agonism / inhibition of LPA response) in RH7777 cells stably expressing LPA2. To be noted: for effect at LPA2 in words: Ca2+ transients. Type of assay: cell-based. The protocol: as §1, §2
Assay [6] has as its target T3, LPA3. In words: Ca2+ transients (agonism / inhibition of LPA response) in RH7777 cells stably expressing LPA3. Type of assay: cell-based. Particulars: for Ki: read-out: LPA3 (Ki). The protocol: as §1, §2
Another assay has as its system PC-3 cells. In words: Ca2+ transients in PC-3 cells endogenously expressing LPA1-3. Type of assay: cell-based, human. The protocol: as §1
We tested the FAP analogs in PC-3 cells, which unlike the transfected RH7777 cells endogenously express LPA1-3 receptors.

In assay [7] the target is T1, LPA1. Particulars: GTPγS loading assay, HEK293T; read-out: reported Ki at LPA1; cited from earlier work.
The target of assay [8] is T3, LPA3. Particulars: GTPγS loading assay, HEK293T; read-out: reported Ki at LPA3; cited from earlier work.
The target in another assay is T4, PPARγ (Homo sapiens, UniProt P37231).
T4 sequence (P37231 1-505): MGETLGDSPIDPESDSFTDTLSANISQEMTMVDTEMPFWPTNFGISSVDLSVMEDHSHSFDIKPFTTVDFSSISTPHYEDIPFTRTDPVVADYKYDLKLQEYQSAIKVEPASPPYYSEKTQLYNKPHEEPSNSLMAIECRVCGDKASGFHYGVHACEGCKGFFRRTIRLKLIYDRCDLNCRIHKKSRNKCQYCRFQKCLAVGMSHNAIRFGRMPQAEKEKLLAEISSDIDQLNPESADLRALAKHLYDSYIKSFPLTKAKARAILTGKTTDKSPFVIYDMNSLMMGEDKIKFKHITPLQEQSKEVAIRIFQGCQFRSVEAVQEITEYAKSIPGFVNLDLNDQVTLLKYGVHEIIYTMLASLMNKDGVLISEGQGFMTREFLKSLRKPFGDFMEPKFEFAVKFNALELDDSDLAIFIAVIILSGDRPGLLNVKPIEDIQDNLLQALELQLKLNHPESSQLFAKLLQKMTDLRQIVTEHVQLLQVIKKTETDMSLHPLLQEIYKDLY
In words: PPARγ activation in CV1 cells, PPRE-Acox-Rluc reporter gene assay. To be noted: 10 μM test compound, 20 h. On the technique in general: Reporter assays use an easily measured gene product as a stand-in for the process of interest.

In assay [9] the target is T1, LPA1. To be noted: original assay, literature; read-out: reported Ki at LPA1; cited from earlier work.
Assay [10] concerns the target T3, LPA3. Particulars: original assay, literature; read-out: reported Ki at LPA3; cited from earlier work.
For a further assay, the system named is γ-irradiated mice. In words: Crypt survival in small intestine after whole body γ-irradiation. Type of assay: in vivo. To be noted: 200 μM into the stomach 2 h prior irradiation, crypts counted 3.5 days after irradiation. How it is done:
The experimental procedure utilized was substantially the same as that reported in Deng et al. (2002).
The whole body irradiation (WBI) protocol has been reviewed and approved by the ACUC Committee of the University of Tennessee Health Sciences Center. ICR strain male mice (Harlan Laboratories, body weight 30–33 g) on a 12 h light/dark cycle and otherwise maintained on a standard laboratory chow ad libitum were starved for 16 h prior to treatment. WBI was done with a 12 Gy or 15 Gy dose using Cs137 source at a dose rate of 1.9 Gy per minute. Groups of four mice received either 250 μl of 1 mM LPA complexed with 100 μM BSA dissolved in Hanks basal salt solution or the BSA vehicle alone 2 h prior to irradiation.
For detection of the apoptotic bodies, mice were euthanized with carbon dioxide inhalation 4 h after irradiation and the small intestine was dissected and fixed in neutral phosphate buffered isotonic 10% formalin. Four ˜3- to 4-mm long segments from the small intestine were embedded in paraffin, 5 μm thick sections were cut and stained with hematoxilin and eosin. The number of surviving crypts was counted 3.5 days after irradiation.

[11] abbreviates: induction of Ca2+ transients, RH7777 cells expressing LPA1, read-out: LPA1 EC50.
The mark [12] stands for this setting: inhibition of LPA-induced Ca2+ transients, RH7777 cells expressing LPA1, read-out: LPA1 IC50.
Setting [13] is: induction of Ca2+ transients, RH7777 cells expressing LPA2, read-out: LPA2 EC50.
Where [14] appears, read: inhibition of LPA-induced Ca2+ transients, RH7777 cells expressing LPA2, read-out: LPA2 IC50.
Where [15] appears, read: induction of Ca2+ transients, RH7777 cells expressing LPA3, read-out: LPA3 EC50.
[16] abbreviates: inhibition of LPA-induced Ca2+ transients, RH7777 cells expressing LPA3.
[17] abbreviates: inhibition of LPA-induced Ca2+ transients, RH7777 cells expressing LPA3, read-out: LPA3 IC50.

T1 sequence (Q92633 whole entry): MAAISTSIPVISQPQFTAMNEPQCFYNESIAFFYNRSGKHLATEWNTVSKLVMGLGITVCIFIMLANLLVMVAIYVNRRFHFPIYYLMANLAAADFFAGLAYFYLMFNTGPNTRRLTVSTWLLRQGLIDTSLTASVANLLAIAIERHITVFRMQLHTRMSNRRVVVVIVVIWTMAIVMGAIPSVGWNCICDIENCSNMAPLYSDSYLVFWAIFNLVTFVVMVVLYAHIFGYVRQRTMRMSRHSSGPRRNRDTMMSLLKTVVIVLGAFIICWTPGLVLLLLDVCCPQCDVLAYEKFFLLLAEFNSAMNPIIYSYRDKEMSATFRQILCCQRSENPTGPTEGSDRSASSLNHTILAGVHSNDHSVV
Experimental for PPARγ: Comparing the effects with the Rosiglitazone, a known PPARγ agonist, CV1 cells were treated with 1% DMSO or 10 μM of test compound dissolved in DMSO for 20 h. Luciferase and β-galactosidase activities (mean±SEM) were measured in the cell lysate (n=4). *P<0.05 and **P<0.01, significant differences over vehicle control.
The assay of PPARγ activation in CV1 cells was run as reported in Zhang et al. Briefly, CV-1 cells were plated in 96-well plates (5×10^3 cells per well) in Dulbecco's modified Eagle's medium supplemented with 10% fetal bovine serum. […] Samples were run in quadruplicate and the mean±standard errors were calculated. Data are representative of at least two independent transfections. Student's t-test was used for null hypothesis testing and P<0.05 was considered transfection, cells were treated with 1% FBS supplemented OptiMEMI (Invitrogen) containing DMSO or 10 μM test compound dissolved in DMSO for 20 h. Luciferase and β-galactosidase activities were measured with the Steady-Glo® Luciferase Assay significant (in the figures P<0.05 is denoted by * and P<0.01 is **).

For the molecule `CCCCCCCCCCCCOP(=O)(O)O` [Compound 2b], in the assay on IEC-6 cells, the “inhibition of Camptothecin-induced DNA fragmentation in words” value (“inhibition” below) is reported as “inhibited”. Moreover, on LPA1 [1], the half-maximal effective concentration (EC50) (usually the concentration at which the effect is half-maximal) is over 30 µM. Also, on LPA2 [2] (RH7777 cells expressing LPA2), the half-inhibitory concentration (IC50) (usually the concentration that gives 50% inhibition) is over 30 µM. Moreover, the “LPA2 (Emax)” value at LPA2 [2] (relative to LPA 18:1) is listed as 50%. Further, on LPA3 [3], the 50% effective concentration (EC50) is over 30 µM; the IC50 is 0.128 µM; the Ki – broadly, the equilibrium dissociation constant of an inhibitor or competing ligand from its target – was 0.061 µM.

With `CCCCCCCC/C=C\CCCCCCCC(=O)N[C@@H](COP(=O)(O)O)Cc1ccc(OCc2ccccc2)cc1` [VPC12249, reference compound], the “effect at LPA1 in words” value at LPA1 [4] (RH7777 cells expressing LPA1) is “weak inhibitor”. In addition, the EC50 on LPA1 [4] (setting [11]), at LPA2 [5] (setting [13]) and on LPA3 [6] (setting [15]) was over 30 µM each time. The IC50 at LPA1 [4] (setting [12]) was over 10 µM; at LPA2 [5] (setting [14]), over 30 µM; on LPA3 [6] (setting [17]), 1.19 µM; in the assay with PC-3 cells (inhibition of LPA-induced Ca2+ transients, PC-3 cells, read-out: PC-3 IC50), over 10 µM. In addition, the “effect at LPA2 in words” value at LPA2 [5] (RH7777 cells expressing LPA2) is listed as “did not affect LPA signaling”. Moreover, the Ki is 0.588 µM on LPA3 [6] (setting [16]), 0.137 µM on LPA1 [7] and 0.428 µM on LPA3 [8]. The “PPARγ activation (PPRE-Acox-Rluc reporter) in words” value at PPARγ is on record as “can activate PPRE-Acox-Rluc reporter; also recorded: exception”.

For lysophosphatidic acid [LPA], the “inhibition” value in the assay on IEC-6 cells is listed as “inhibited; also recorded: dose-dependently inhibit DNA fragmentation”.

Take `CCCCCCCC(=O)OC[C@H](COP(=O)(O)OP(=O)(O)O)OC(=O)CCCCCCC` [DGPP, reference compound]: the inhibitory constant (Ki) at LPA1 [4] (RH7777 cells expressing LPA1) is 4.3 µM; at LPA3 [6] (setting [16]), 0.202 µM; on LPA1 [9] it was 6.6 µM; on LPA3 [10], 0.106 µM. Also, the concentration giving a half-maximal response (EC50) on LPA1 [4] (setting [11]), at LPA2 [5] (setting [13]) and at LPA3 [6] (setting [15]) was over 30 µM each time. In addition, the IC50 at LPA1 [4] (setting [12]) was 5.5 µM; on LPA2 [5] (setting [14]), over 30 µM; at LPA3 [6] (setting [17]), 0.454 µM. Further, the “PPARγ activation (PPRE-Acox-Rluc reporter) in words” value on PPARγ is “can activate PPRE-Acox-Rluc reporter”.

For `CCCCCCCCC=CCCCCCCCCOP(O)(O)=S` [Compound 8g, Thiophosphoric acid O-octadec-9-enyl ester], the 50% effective concentration (EC50) at LPA1 [4] is 0.193 µM; at LPA2 [5] it was 0.244 µM; at LPA3 [6] it was 0.546 µM. For the same molecule, the half-maximal inhibitory concentration (IC50) against LPA1 [4], at LPA2 [5] and against LPA3 [6] was over 30 µM throughout. The “effect at LPA1 in words” value on LPA1 [4] (RH7777 cells expressing LPA1) is given as “agonist”. Further, the Emax (usually the maximal effect, on the per cent scale that the assay sets) worked out at 80% on LPA1 [4] (RH7777, read-out: LPA1 (Emax)) and 30% with PC-3 cells (Homo sapiens, PC-3, read-out: PC-3 (Emax)). In addition, the “LPA1 (Emax)” value at LPA1 [4] (maximal efficacy of the drug/maximal efficacy of LPA 18:1) is on record as 80%. Further, the “effect at LPA2 in words” value at LPA2 [5] (RH7777 cells expressing LPA2) is listed as “agonist”. For the same molecule, the “effect at LPA3 in words” value at LPA3 [6] (Ca2+ transients, RH7777 cells expressing LPA3) is reported as “agonist”. The “effect in PC-3 cells in words” value in the assay on PC-3 cells (Ca2+ transients, PC-3 cells) is on record as “no inhibition of LPA response”. Also, the “inhibition” value in the assay with IEC-6 cells is recorded as “comparable to that of LPA but supersedes it at concentrations above 3 μM; also recorded: dose-dependently inhibit DNA fragmentation”. The “crypt survival in words” value in the assay with γ-irradiated mice is “enhances crypt survival”; in the assay with γ-irradiated mice (listed as FAP 18:1 d9) it was “dose-dependent enhancement of crypt survival”; with γ-irradiated mice (listed as FAP 18:1d9), “significantly (P>0.01) enhanced crypt survival; also recorded: present in the jejunum and ileum and exceeded that of LPA; also recorded: dose-dependent crypt survival in the ileum and jejunum”.

The values are drawn from US7217704B2, “LPA receptor agonists and antagonists and methods of use” (The University of Tennessee Research Foundation, priority 2003, dated 2007).
